According to PMC9230784, “Development of a Novel Class of Pyridazinone Derivatives as Selective MAO-B Inhibitors” (Molecules, 2022):
“Also recorded” adds a separate entry of the source. Where two headings read alike, the source gives them in different places.

Legend:
[1] = target: T1, MAO-B (Homo sapiens, UniProt P27338); assay: biochemical; format: biochemical; settings: for remaining activity at 10 µM: 10 µM compound, mean ± standard error of duplicate or triple studies, read-out: Residual Activity at 10 µM (%) MAO-B; for SI (selectivity index for MAO-B compared with MAO-A): MAO-B versus MAO-A
T1 construct: purchased Sigma-Aldrich (St. Louis, MO, USA)
T1 sequence (P27338 1-520): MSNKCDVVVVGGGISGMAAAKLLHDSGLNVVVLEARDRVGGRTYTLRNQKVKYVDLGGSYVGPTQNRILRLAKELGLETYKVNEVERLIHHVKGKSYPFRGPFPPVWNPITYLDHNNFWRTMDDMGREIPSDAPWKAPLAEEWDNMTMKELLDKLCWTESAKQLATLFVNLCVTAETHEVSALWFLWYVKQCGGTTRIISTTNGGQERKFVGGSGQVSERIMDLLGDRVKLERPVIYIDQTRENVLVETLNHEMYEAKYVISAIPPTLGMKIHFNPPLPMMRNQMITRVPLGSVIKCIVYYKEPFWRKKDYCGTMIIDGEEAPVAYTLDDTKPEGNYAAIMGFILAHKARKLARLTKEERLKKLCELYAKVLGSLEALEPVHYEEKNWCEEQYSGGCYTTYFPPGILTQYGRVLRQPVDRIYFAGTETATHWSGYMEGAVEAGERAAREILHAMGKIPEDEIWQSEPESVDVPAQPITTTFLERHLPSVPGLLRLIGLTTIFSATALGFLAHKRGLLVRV
Experimental: The IC50 values were determined by measuring the residual activity at different concentrations of the compounds and by using GraphPad Prism software 5.0. […] BACE1 inhibitory activities were tested by the BACE1 activity detection kit. The assay method was described previously. Recombinant human MAO-A and MAO-B, AChE from Electrophorus electricus, BChE from equine serum, BACE1, and their substrates and reference inhibitors were purchased from Sigma-Aldrich (St. Louis, MO, USA). […]

[2] = target: T2, Recombinant human MAO-A (Homo sapiens, UniProt P21397); assay: biochemical; settings: for remaining activity at 10 µM: 10 µM compound, mean ± standard error of duplicate or triple studies, read-out: Residual Activity at 10 µM (%) MAO-A
T2 construct: purchased Sigma-Aldrich (St. Louis, MO, USA)
T2 sequence (P21397 1-527): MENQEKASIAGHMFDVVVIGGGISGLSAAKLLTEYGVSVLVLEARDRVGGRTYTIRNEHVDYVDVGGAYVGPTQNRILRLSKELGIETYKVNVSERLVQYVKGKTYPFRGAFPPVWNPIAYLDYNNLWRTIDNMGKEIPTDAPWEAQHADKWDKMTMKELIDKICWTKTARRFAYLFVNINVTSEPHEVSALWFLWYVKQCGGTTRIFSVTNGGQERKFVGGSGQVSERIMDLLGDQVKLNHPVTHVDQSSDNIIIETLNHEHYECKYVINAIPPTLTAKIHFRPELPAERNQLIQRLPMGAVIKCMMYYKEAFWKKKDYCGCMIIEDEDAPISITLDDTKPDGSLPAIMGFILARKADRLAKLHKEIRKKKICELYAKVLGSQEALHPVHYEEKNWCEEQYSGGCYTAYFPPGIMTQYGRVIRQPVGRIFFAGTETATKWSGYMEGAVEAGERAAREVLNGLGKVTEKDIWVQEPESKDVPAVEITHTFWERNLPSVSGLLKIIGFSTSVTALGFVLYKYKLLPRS
Experimental: The IC50 values were determined by measuring the residual activity at different concentrations of the compounds and by using GraphPad Prism software 5.0. […] BACE1 inhibitory activities were tested by the BACE1 activity detection kit. The assay method was described previously. Recombinant human MAO-A and MAO-B, AChE from Electrophorus electricus, BChE from equine serum, BACE1, and their substrates and reference inhibitors were purchased from Sigma-Aldrich (St. Louis, MO, USA).
(§1) Lineweaver–Burk plots were used to examine the inhibition patterns, and secondary plots were used to calculate the Ki values with three inhibitor dosages.

[3] = for Prediction (BBB permeation class): PAMPA-BBB; for BBB permeation in words: PAMPA
[4] = PAMPA-BBB; cited from earlier work
[5] = target: T1, MAO-B; assay: Kinetic study, Lineweaver–Burk and secondary plots; format: biochemical; settings: for Inhibition type for MAO-B: Lineweaver–Burk plots
Source text: Five different substrate concentrations were used in the kinetics.
as §1

[6] = in vitro; settings: PAMPA
[7] = target: T1, MAO-B; assay: Inhibition reversibility by dialysis; format: biochemical; settings: for Reversibility of MAO-B inhibition: dialysis, AU versus AD; for Relative activity of dialyzed (AD) sample / Relative activity of undialyzed (AU) sample: preincubation 30 min at ~2 × IC50
Source text: The relative activity of undialyzed (AU) as well as dialyzed (AD) samples were compared to establish reversibility profiles.
To determine reversibility patterns, the activities of dialyzed (AD) and undialyzed (AU) specimens were compared.

[8] = benzylamine 0.3 mM, highest concentration 40 µM, read-out: IC50 (µM) MAO-B
[9] = kynuramine 0.06 mM, highest concentration 40 µM, read-out: IC50 (µM) MAO-A

| Compound | remaining activity at 10 µM [1] [%] | SI (selectivity index for MAO-B compared with MAO-A) [1] | IC50 [1, 8] [µM] | remaining activity at 10 µM [2] [%] | IC50 [2, 9] [µM] | other results |
| --- | --- | --- | --- | --- | --- | --- |
| COc1cccc(N2CCN(c3ccc(=O)n(CC(=O)NN=Cc4ccc(F)cc4)n3)CC2)c1 [TR3] | 20.1 ± 1.15 | 9.31 | 2.11 ± 0.51 | 71.66 ± 0.71 | 19.7 ± 0.3 |  |
| O=C(Cn1nc(N2CCOCC2)ccc1=O)NN=Cc1ccccc1 [TR14] | 107 ± 2.01 |  | > 40 | 97.47 ± 0.71 | > 40 |  |
| COc1cccc(N2CCN(c3ccc(=O)n(CC(=O)NN=Cc4ccc(C)cc4)n3)CC2)c1 [TR5] | 45.6 ± 2.56 | 4.12 | 4.42 ± 0.23 | 72.8 ± 1.02 | 18.19 ± 0.09 |  |
| NCCc1ccc(O)c(O)c1 [Dopamine, reference compound] |  |  |  |  |  | Prediction (BBB permeation class) [3]: CNS- (CNS-: Pe (10^−6 cm/s) <2, less BBB permeable); Bibliography Pe (×10^−6 cm/s) [4]: 0.2 ×10^−6 cm/s |
| Cc1ccc(C=NNC(=O)Cn2nc(N3CCN(c4cccc(C(F)(F)F)c4)CC3)ccc2=O)cc1 [TR11] | 83.87 ± 0.56 | 0.57 | 32 ± 1.21 | 55.6 ± 2.28 | 18.5 ± 5.83 |  |
| O=C(Cn1nc(N2CCOCC2)ccc1=O)NN=Cc1ccc(Cl)cc1 [TR16] | 13.1 ± 0.64 |  |  | 85 ± 3.08 |  | Ki [5]: 0.149 ± 0.016 µM; Inhibition type for MAO-B [5]: competitive inhibitors; Papp [6]: 10.6 ± 0.26 ×10⁻⁶ cm/s; BBB permeation in words [3]: tendency to traverse the blood–brain barrier; also recorded: good CNS permeabilities; Prediction (BBB permeation class) [3]: CNS+ (CNS+, Pe (10^−6 cm/s) >4, good BBB permeable); Reversibility of MAO-B inhibition [7]: reversible inhibitors; Relative activity of dialyzed (AD) sample [7]: 73.4%; Relative activity of undialyzed (AU) sample [7]: 31.8%; IC50 [1]: 0.17 ± 0.04 µM; Fold higher IC50 for MAO-B than TR2 ([1]; versus TR2): 1.59 fold; Times higher MAO-B inhibitory activity over the basic structure TR14 ([1]; versus TR14): 235.3 times; Times higher MAO-B inhibitory activity over TR15 ([1]; versus TR15): 2.5 times; IC50 [2]: > 40 µM |
| O=C(Cn1nc(N2CCOCC2)ccc1=O)NN=Cc1ccc(F)cc1 [TR15] | 12.5 ± 3.54 |  |  | 85.6 ± 1.04 |  | IC50 [1]: 0.43 ± 0.05 µM; IC50 [2]: > 40 µM |
| COc1cccc(N2CCN(c3ccc(=O)n(CC(=O)NN=Cc4ccccc4)n3)CC2)c1 [TR1] | 80.5 ± 1.01 | <0.43 | > 40 | 82 ± 1.2 | 17.3 ± 1.2 |  |
| O=C(Cn1nc(N2CCN(c3cccc(C(F)(F)F)c3)CC2)ccc1=O)NN=Cc1ccc(Br)cc1 [TR13] | 100 ± 5.43 | <0.78 | > 40 | 74.2 ± 6.43 | 31 ± 4.33 |  |
| O=C(Cn1nc(N2CCN(c3cccc(C(F)(F)F)c3)CC2)ccc1=O)NN=Cc1ccc(Cl)cc1 [TR8] | 69.1 ± 0.95 | 0.60 | 20 | 52.9 ± 0.82 | 12 ± 1.75 |  |
| CN(C)c1ccc(C=NNC(=O)Cn2nc(N3CCN(c4cccc(C(F)(F)F)c4)CC3)ccc2=O)cc1 [TR12] | 85.3 ± 1.59 | <0.37 | > 40 | 52.5 ± 1.77 | 14.7 ± 2.96 |  |
| O=C(Cn1nc(N2CCN(c3cccc(C(F)(F)F)c3)CC2)ccc1=O)NN=Cc1ccc(F)cc1 [TR9] | 46.5 ± 4.93 | 17.08 | 1 ± 0.15 | 72.28 ± 0.4 | 17.1 ± 0.21 |  |
| COc1ccc(C=NNC(=O)Cn2nc(N3CCN(c4cccc(C(F)(F)F)c4)CC3)ccc2=O)cc1 [TR10] | 91.9 ± 7.09 | <0.33 | > 40 | 56 ± 2.26 | 13.3 ± 1.81 |  |
| COc1cccc(N2CCN(c3ccc(=O)n(CC(=O)NN=Cc4ccc(Cl)cc4)n3)CC2)c1 [TR2] | -4.37 ± 4.13 |  |  | 65.8 ± 0.66 |  | Ki [5]: 0.23 ± 0.004 µM; Inhibition type for MAO-B [5]: competitive inhibitors; Papp [6]: 9.33 ± 0.33 ×10⁻⁶ cm/s; BBB permeation in words [3]: tendency to traverse the blood–brain barrier; also recorded: good CNS permeabilities; Prediction (BBB permeation class) [3]: CNS+ (CNS+, Pe (10^−6 cm/s) >4, good BBB permeable); Reversibility of MAO-B inhibition [7]: reversible inhibitors; Relative activity of dialyzed (AD) sample [7]: 75.0%; Relative activity of undialyzed (AU) sample [7]: 28.0%; IC50 [1]: 0.27 ± 0.02 µM; Fold increase of MAO-B inhibitory potency compared to the basic structure TR1 ([1]; versus TR1): 148.1 fold; IC50 [2]: 22.9 ± 0.24 µM |
| CC(=O)[C@H]1CC[C@H]2[C@@H]3CCC4=CC(=O)CC[C@]4(C)[C@H]3CC[C@]12C [Progesterone, reference compound] |  |  |  |  |  | Prediction (BBB permeation class) [3]: CNS+ (CNS+, Pe (10^−6 cm/s) >4, good BBB permeable) |
| CCn1cc(C(=O)O)c(=O)c2cc(F)c(N3CCNC(C)C3)c(F)c21 (stereo not shown) [Lomefloxacin, reference compound] |  |  |  |  |  | Prediction (BBB permeation class) [3]: CNS- (CNS-: Pe (10^−6 cm/s) <2, less BBB permeable) |
| O=C(Cn1nc(N2CCN(c3cccc(C(F)(F)F)c3)CC2)ccc1=O)NN=Cc1ccccc1 [TR7] | 90.7 ± 6.64 | <0.36 | > 40 | 55.4 ± 0.84 | 14.4 ± 3.55 |  |
| COc1ccc(C=NNC(=O)Cn2nc(N3CCN(c4cccc(OC)c4)CC3)ccc2=O)cc1 [TR4] | 88.6 ± 8.61 | <0.41 | > 40 | 61 ± 3.54 | 16.5 ± 1.66 |  |
| COc1cccc(N2CCN(c3ccc(=O)n(CC(=O)NN=Cc4ccc(Br)cc4)n3)CC2)c1 [TR6] | 70.2 ± 3.8 | 0.81 | 15.1 ± 0.18 | 51.7 ± 4.55 | 12.33 ± 0.11 |  |
